Source: US20200237937A1, “COMPOSITIONS AND METHODS FOR ASSESSING […] PATHOLOGY” (Navidea Biopharmaceuticals, Inc., priority 2019, published 2020)
Like-named read-outs stand apart in the source and are kept apart here.

Experiments:
mannose receptor (CD206) [1] = molecular target: T1, mannose receptor (CD206) (Homo sapiens, UniProt P22897)
Protocol: (§1) The mass dose of tilmanocept injected into the subjects varied from 125 μg to 400 μg. […] The images shown in FIGS. 1 and 2 were acquired using a Siemens Symbia Intevo camera. Image acquisition times varied between studies from 5-10 minutes.

mannose receptor (CD206) [2] = molecular target: T1, mannose receptor (CD206); details: for Mean Joint Specific MARTAD: 5 healthy subjects, IV, 10 mCi 99mTc; for Cutoff Value (MARTAD 2 S.D. above the joint specific mean): from 5 healthy subjects
Protocol: In certain aspects, the pixel intensities of the ROI and RR are used to derive normalized region-specific mannose receptor targeted localization determination (MARTAD) value. The MARTAD value is quantitative index of the amount of imaging agent localization that can be attributable to disease activity in planar images. Defined broadly, the MARTAD value is determined by assessing the ratio of average pixel intensity of the ROI to the average pixel intensity of the RR. In certain alternative embodiments, the MARTAD value is determined by assessing the ratio of maximum pixel intensity of the ROI to the maximum pixel intensity of the RR.
Following MARTAD value determination for a joint or plurality of joints, the MARTAD value can be used to determine macrophage involvement by comparing the MARTAD of the first joint to a normal MARTAD value for a corresponding joint (e.g., RtPIP2 RA vs RtPIP2 healthy). In certain implementations, the normal MARTAD value is determined by aggregating the MARTAD values for each joint from a pool of healthy subjects (e.g., not suffering from RA). In exemplary implementations, the method for defining the joint specific RR in the pool of healthy subjects will be the same as that used for the patient population. Macrophage involvement in a subject is indicated by a joint specific MARTAD value that exceeds the normal MARTAD value by a predetermined threshold. […] In certain alternative implementations, the predetermined threshold subject joint MARTAD value greater above the 95% confidence interval of the average MARTAD value corresponding joint from the plurality of healthy subjects.
as §1
Cutoff values for determination of macrophage involvement in RA inflammation set at MARTAD values greater than 2 S.D. above the joint specific mean.

T1 sequence (P22897 19-1456): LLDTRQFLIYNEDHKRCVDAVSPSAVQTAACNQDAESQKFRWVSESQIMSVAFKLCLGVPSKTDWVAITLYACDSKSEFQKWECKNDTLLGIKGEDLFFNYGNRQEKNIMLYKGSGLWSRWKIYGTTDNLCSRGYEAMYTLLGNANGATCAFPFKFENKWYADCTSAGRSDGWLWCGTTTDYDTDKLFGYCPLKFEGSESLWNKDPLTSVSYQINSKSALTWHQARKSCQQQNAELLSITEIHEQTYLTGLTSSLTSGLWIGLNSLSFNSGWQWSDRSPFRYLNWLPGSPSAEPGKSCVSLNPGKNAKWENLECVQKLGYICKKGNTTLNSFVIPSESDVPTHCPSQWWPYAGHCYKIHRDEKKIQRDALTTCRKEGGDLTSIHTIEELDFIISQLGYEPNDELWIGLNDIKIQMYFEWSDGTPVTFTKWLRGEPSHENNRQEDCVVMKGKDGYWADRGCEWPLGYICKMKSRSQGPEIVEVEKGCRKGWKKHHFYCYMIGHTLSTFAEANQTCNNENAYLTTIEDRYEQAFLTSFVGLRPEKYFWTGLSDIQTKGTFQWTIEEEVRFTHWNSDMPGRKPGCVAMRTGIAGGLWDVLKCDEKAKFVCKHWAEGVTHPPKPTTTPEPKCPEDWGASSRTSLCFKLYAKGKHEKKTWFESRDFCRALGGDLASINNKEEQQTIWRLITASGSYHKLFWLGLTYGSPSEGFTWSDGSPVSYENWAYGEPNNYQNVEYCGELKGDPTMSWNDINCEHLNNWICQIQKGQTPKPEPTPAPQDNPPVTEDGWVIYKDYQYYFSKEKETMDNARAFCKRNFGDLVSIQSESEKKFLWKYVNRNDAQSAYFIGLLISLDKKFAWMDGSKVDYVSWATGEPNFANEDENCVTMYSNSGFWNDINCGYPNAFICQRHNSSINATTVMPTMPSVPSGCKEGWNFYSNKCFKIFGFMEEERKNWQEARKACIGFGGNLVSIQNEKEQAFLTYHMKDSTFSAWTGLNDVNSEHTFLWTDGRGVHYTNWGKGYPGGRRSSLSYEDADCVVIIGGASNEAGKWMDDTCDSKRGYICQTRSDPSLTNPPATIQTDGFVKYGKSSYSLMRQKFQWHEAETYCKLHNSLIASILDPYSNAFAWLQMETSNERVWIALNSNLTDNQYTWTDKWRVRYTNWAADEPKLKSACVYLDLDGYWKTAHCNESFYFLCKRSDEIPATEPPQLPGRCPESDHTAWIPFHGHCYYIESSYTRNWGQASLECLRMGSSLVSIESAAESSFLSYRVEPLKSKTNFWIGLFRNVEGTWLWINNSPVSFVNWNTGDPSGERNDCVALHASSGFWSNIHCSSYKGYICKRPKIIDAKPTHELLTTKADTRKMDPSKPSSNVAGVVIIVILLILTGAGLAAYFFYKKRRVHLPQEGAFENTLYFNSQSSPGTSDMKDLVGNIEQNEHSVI

With “dextran 3-[(2-aminoethyl)thio]propyl 17-carboxy-10,13,16-tris(carboxymethyl)-8-oxo-4-thia-7,10,13,16-tetraazaheptadec-1-yl 3-[[2-[[1-imino-2-(D-mannopyranosylthio)ethyl]amino]ethyl]thio]propyl ether complexes [Tc99m-tilmanocept]” the “Sensitivity of MARTAD values to image acquisition time” value (mannose receptor (CD206) [1]; image acquisition times 5-10 minutes) was “not sensitive”, the “Effect of mass dose on image quality” value (mannose receptor (CD206) [1]; mass dose of tilmanocept 125 μg to 400 μg IV, separate studies (not shown)) was “did not impact image quality” and the “MARTAD values of repeat images versus first images” value (mannose receptor (CD206) [1]; repeat images 180-240 minutes after injection vs 45-75 minutes, same subjects) was “statistically similar”. For the same substance, the “Mean Joint Specific MARTAD” value (mannose receptor (CD206) [2]; MCP1) was 0.87, the “Cutoff Value (MARTAD 2 S.D. above the joint specific mean)” value (shortened to “Cutoff Value”) (mannose receptor (CD206) [2]; MCP1) was 0.99 and the “Mean Joint Specific MARTAD” value (mannose receptor (CD206) [2]; MCP2) was 0.86. For the same substance, the “Cutoff Value” value (mannose receptor (CD206) [2]; MCP2) was 1.13, the “Mean Joint Specific MARTAD” value (mannose receptor (CD206) [2]; MCP3) was 0.79 and the “Cutoff Value” value (mannose receptor (CD206) [2]; MCP3) was 0.93. The “Mean Joint Specific MARTAD” value (mannose receptor (CD206) [2]; MCP4) was 0.77, the “Cutoff Value” value (mannose receptor (CD206) [2]; MCP4) was 1.00 and the “Mean Joint Specific MARTAD” value (mannose receptor (CD206) [2]; MCP5) was 0.76. The “Cutoff Value” value (mannose receptor (CD206) [2]; MCP5) was 1.08, the “Mean Joint Specific MARTAD” value (mannose receptor (CD206) [2]; PIP1) was 0.98 and the “Cutoff Value” value (mannose receptor (CD206) [2]; PIP1) was 1.21. For the same substance, the “Mean Joint Specific MARTAD” value (mannose receptor (CD206) [2]; PIP2) was 1.05, the “Cutoff Value” value (mannose receptor (CD206) [2]; PIP2) was 1.34 and the “Mean Joint Specific MARTAD” value (mannose receptor (CD206) [2]; PIP3) was 1.03. For the same substance, the “Cutoff Value” value (mannose receptor (CD206) [2]; PIP3) was 1.39, the “Mean Joint Specific MARTAD” value (mannose receptor (CD206) [2]; PIP4) was 0.93 and the “Cutoff Value” value (mannose receptor (CD206) [2]; PIP4) was 1.19. For the same substance, the “Mean Joint Specific MARTAD” value (mannose receptor (CD206) [2]; PIP5) was 0.87, the “Cutoff Value” value (mannose receptor (CD206) [2]; PIP5) was 1.14 and the “Mean Joint Specific MARTAD” value (mannose receptor (CD206) [2]; Wrists, images 45-75 min after injection) was 1.04. The “Cutoff Value” value (mannose receptor (CD206) [2]; Wrists) was 1.24.
